Reference: patent US20250268830A1, “SUSTAINED RELEASE INJECTABLE PHARMACEUTICAL FORMULATION OF LEVOTHYROXINE AND PROCESS FOR PREPARATION THEREOF” (PHARMATHEN S.A., priority 2021, published 2025)

Legend:
[1] = LVX solubility in DCM/MeOH 10/3 with PLGA (evaluation of maximum theoretical drug loading); format: physicochemical
Method: A quantity of approximately 0.25 g of polymer and varying quantities of LVX corresponding to theoretical drug loading values 1%, 2%, 3% and 4% were weighed in four vials. A DCM/MeOH mixture at a ratio of 10/3 (to ensure the polymer is always dissolved) was gradually added in each vial. The respective PLGA (PURASORB PDLG 5002A) concentrations, % LVX content and LVX solubility were evaluated and are presented in the table below.

[2] = solubility of the API in MeOH; format: physicochemical; settings: 20° C.
Method: The solubility at 20° C. of the API in MeOH was determined as follows: approximately 50 mg Levothyroxine sodium were weighed in a vial. Methanol was gradually added until the solution became clear.

SMILES: N[C@@H](Cc1cc(I)c(Oc2cc(I)c(O)c(I)c2)c(I)c1)C(=O)O [Levothyroxine sodium]
- ratio LVX/(DCM+MeOH) at which levothyroxine is dissolved ([1]; DCM/MeOH 10/3 with PLGA): below 0.1%
- LVX Solubility ([1]; Vial 1, 1.0% TDL, DCM+MeOH 2.5 g, 0.11% LVX in mix, 13.01% PLGA in DCM): Insoluble
- LVX Solubility ([1]; Vial 1, 1.0% TDL, DCM+MeOH 3.3 g, 0.08% LVX in mix, 9.99% PLGA in DCM): Almost Clear
- LVX Solubility ([1]; Vial 1, 1.0% TDL, DCM+MeOH 4.3 g, 0.06% LVX in mix, 7.63% PLGA in DCM): Clear
- LVX Solubility ([1]; Vial 1, 1.0% TDL, DCM+MeOH 5.5 g, 0.05% LVX in mix, 5.92% PLGA in DCM): Clear
- LVX Solubility ([1]; Vial 2, 2.0% TDL, DCM+MeOH 2.6 g, 0.20% LVX in mix, 12.58% PLGA in DCM): Slurry
- LVX Solubility ([1]; Vial 2, 2.0% TDL, DCM+MeOH 3.3 g, 0.16% LVX in mix, 10.05% PLGA in DCM): Sluny
- LVX Solubility ([1]; Vial 2, 2.0% TDL, DCM+MeOH 4.3 g, 0.12% LVX in mix, 7.69% PLGA in DCM): Less Slurry
- LVX Solubility ([1]; Vial 2, 2.0% TDL, DCM+MeOH 5.6 g, 0.09% LVX in mix, 5.92% PLGA in DCM): Almost Clear
- LVX Solubility ([1]; Vial 3, 3.0% TDL, DCM+MeOH 2.6 g, 0.30% LVX in mix, 12.69% PLGA in DCM): Shary
- LVX Solubility ([1]; Vial 3, 3.0% TDL, DCM+MeOH 3.3 g, 0.24% LVX in mix, 9.97% PLGA in DCM): Slurry
- LVX Solubility ([1]; Vial 3, 3.0% TDL, DCM+MeOH 4.2 g, 0.18% LVX in mix, 7.70% PLGA in DCM): Less Shury
- LVX Solubility ([1]; Vial 3, 3.0% TDL, DCM+MeOH 5.5 g, 0.14% LVX in mix, 5.95% PLGA in DCM): Less Slurry
- LVX Solubility ([1]; Vial 3, 3.0% TDL, DCM+MeOH 7.7 g, 0.10% LVX in mix, 4.25% PLGA in DCM): Almost Clear
- LVX Solubility ([1]; Vial 3, 3.0% TDL, DCM+MeOH 9.6 g, 0.08% LVX in mix, 3.39% PLGA in DCM): Almost Clear
- LVX Solubility ([1]; Vial 3, 3.0% TDL, DCM+MeOH 12.3 g, 0.06% LVX in mix, 2.65% PLGA in DCM): Clear
- LVX Solubility ([1]; Vial 4, 4.0% TDL, DCM+MeOH 2.6 g, 0.39% LVX in mix, 12.33% PLGA in DCM): Slurry
- LVX Solubility ([1]; Vial 4, 4.0% TDL, DCM+MeOH 3.3 g, 0.31% LVX in mix, 9.82% PLGA in DCM): Shary
- LVX Solubility ([1]; Vial 4, 4.0% TDL, DCM+MeOH 4.3 g, 0.24% LVX in mix, 7.56% PLGA in DCM): Slurry
- LVX Solubility ([1]; Vial 4, 4.0% TDL, DCM+MeOH 5.6 g, 0.19% LVX in mix, 5.87% PLGA in DCM): Less Slurry
- solubility in MeOH [2]: 3.41 % mass LVX/mass of MeOH
